How the values were obtained:
BaF3 (EGFR/D770insNPG) = BaF3 (EGFR/D770insNPG) (Homo sapiens, UniProt P00533, cells depend on it, form not given); test: Test 17: EGFR exon 20 inserted D770insNPG cell proliferation test; assay type: cell-based; conditions: 72 hours, Cell Titer-Glo, read-out: Test 17 IC50
Procedure: Test 17: EGFR Exon 20 Inserted D770insNPG Cell Proliferation Test
(§1) The number of viable cells in the culture was measured according to the protocol described in Promega's Cell Titer-Glo Luminescent cell Viability Assay (Promega catalog number #G7570). 90 μl of cells (3,000 cells/well) were cultured in growth medium in a Corning black transparent bottom 96-well plate, and cultured in a 5% CO2 humidified incubator at 37° C. overnight. The compound serially diluted in 100% DMSO was added to the cells using a pipette, and the cells were incubated for another 72 hours. 100 μl of the mixed Cell Titer-Glo reagent was added to the cells in the 96-well culture plate to lyse the cells and mix gently. Subsequently, the […] was detected on the Envision microplate detector to obtain the data of each compound. Finally, the data was input into a suitable software package (such as Prism) for curve fitting analysis.

BaF3 (EGFR/D770insSVD) [1] = target: T1, BaF3 (EGFR/D770insSVD) (Homo sapiens, UniProt P00533, cells depend on it, form not given); test: Test 13: EGFR exon 20 inserted D770insSVD cell proliferation test; assay type: cell-based; conditions: A763insFQEA, V769insASV, D770insSVD (tests 13-15), in words
T1 construct: other: A763insFQEA, V769ins
In short: (§2)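 BaF3 cells expressing EGFR D770insSVD, 3,000 cells/well, seeded overnight at 37° C, 5% CO2, then exposed to serially diluted compound for 72 h. Viable cells read by CellTiter-Glo luminescence; values from curve fitting.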

BaF3 (EGFR/D770insSVD) [2] = target: T2, BaF3 (EGFR/D770insSVD) (Homo sapiens, UniProt P00533, DUP768-770, cells depend on it); test: as above; assay type: cell-based; conditions: BaF3 (EGFR/D770insSVD), 72 hours, Cell Titer-Glo; read-out: Test 13 IC50
T2 construct: Test 13 IC50 (nM); other: BaF3 (EGFR/D770insSVD), 72 hours, Cell Titer-Glo
In short: as §2

BaF3 (HER2/P780insGSP) = BaF3 (HER2/P780insGSP) (Homo sapiens, UniProt P04626, cells depend on it, form not given); test: Test 22: HER2 exon 20 inserted P780insGSP cell proliferation test; assay type: cell-based; conditions: 72 hours, Cell Titer-Glo, read-out: test 22 IC50
BaF3 (HER2/P780insGSP), sequence (P04626 with tags, fused parts or gaps DELINS776-776VC): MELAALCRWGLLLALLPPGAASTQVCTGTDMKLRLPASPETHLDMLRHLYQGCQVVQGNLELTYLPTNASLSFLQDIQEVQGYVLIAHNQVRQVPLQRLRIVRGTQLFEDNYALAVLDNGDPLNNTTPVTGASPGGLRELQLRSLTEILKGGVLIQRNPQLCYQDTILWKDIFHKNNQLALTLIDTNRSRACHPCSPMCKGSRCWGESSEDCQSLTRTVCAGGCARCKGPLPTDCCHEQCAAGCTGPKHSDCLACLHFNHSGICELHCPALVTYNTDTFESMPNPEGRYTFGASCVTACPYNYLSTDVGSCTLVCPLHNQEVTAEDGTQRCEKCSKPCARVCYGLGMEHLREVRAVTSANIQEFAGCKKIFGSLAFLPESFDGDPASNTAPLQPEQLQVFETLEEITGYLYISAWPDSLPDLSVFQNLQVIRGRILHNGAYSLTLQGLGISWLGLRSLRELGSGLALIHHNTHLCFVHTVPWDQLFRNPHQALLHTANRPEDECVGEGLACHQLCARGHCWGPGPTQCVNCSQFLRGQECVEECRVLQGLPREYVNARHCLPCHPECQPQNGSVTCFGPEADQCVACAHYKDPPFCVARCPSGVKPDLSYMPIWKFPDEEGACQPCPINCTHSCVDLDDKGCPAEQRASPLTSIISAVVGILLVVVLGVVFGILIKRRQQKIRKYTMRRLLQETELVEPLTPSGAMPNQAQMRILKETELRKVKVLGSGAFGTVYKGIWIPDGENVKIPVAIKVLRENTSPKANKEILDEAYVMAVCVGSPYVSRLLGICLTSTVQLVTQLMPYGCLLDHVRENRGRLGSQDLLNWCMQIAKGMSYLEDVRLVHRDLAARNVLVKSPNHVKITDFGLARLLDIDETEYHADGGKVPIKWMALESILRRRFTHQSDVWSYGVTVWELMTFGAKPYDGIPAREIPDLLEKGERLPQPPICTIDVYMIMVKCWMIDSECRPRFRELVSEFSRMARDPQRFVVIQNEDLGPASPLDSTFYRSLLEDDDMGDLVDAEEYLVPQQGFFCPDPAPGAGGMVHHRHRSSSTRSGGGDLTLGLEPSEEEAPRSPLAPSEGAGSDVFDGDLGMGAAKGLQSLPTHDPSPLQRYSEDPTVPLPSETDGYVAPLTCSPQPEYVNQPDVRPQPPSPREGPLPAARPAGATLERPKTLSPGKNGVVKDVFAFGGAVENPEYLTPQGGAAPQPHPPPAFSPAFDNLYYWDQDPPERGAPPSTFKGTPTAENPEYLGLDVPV
Procedure: Test 22: HER2 Exon 20 Inserted P780insGSP Cell Proliferation Test
The engineered cell line BaF3 (HER2/P780insGSP) was constructed by the inventor himself (for the method of cell line construction, see Jingrui Jiang et al., Cancer Res. 2005 Oct. 1; 65 (19): 8964-74; Jacqulyne P. Robichaux et al., Nat Med. 2018 May; 24 (5): 638-646). BaF3 (HER2/P780insGSP) was cultured in RPMI 1640 medium containing 10% fetal bovine serum and 2 mM glutamine, and the cells were grown at 37° C. in a humidified incubator with 5% CO2.
as §1

BaF3 (HER2/A775insYVMA) = target: T3, BaF3 (HER2/A775insYVMA) (Homo sapiens, UniProt P04626, cells depend on it, form not given); test: Test 21: HER2 exon 20 inserted A775insYVMA cell proliferation test; assay type: cell-based; conditions: BaF3 (HER2/A775insYVMA), 72 hours, Cell Titer-Glo; read-out: test 21 IC50
T3 construct: other: BaF3 (HER2/A775insYVMA), 72 hours, Cell Titer-Glo
T3 sequence (P04626 with tags, fused parts or gaps DUP778-780): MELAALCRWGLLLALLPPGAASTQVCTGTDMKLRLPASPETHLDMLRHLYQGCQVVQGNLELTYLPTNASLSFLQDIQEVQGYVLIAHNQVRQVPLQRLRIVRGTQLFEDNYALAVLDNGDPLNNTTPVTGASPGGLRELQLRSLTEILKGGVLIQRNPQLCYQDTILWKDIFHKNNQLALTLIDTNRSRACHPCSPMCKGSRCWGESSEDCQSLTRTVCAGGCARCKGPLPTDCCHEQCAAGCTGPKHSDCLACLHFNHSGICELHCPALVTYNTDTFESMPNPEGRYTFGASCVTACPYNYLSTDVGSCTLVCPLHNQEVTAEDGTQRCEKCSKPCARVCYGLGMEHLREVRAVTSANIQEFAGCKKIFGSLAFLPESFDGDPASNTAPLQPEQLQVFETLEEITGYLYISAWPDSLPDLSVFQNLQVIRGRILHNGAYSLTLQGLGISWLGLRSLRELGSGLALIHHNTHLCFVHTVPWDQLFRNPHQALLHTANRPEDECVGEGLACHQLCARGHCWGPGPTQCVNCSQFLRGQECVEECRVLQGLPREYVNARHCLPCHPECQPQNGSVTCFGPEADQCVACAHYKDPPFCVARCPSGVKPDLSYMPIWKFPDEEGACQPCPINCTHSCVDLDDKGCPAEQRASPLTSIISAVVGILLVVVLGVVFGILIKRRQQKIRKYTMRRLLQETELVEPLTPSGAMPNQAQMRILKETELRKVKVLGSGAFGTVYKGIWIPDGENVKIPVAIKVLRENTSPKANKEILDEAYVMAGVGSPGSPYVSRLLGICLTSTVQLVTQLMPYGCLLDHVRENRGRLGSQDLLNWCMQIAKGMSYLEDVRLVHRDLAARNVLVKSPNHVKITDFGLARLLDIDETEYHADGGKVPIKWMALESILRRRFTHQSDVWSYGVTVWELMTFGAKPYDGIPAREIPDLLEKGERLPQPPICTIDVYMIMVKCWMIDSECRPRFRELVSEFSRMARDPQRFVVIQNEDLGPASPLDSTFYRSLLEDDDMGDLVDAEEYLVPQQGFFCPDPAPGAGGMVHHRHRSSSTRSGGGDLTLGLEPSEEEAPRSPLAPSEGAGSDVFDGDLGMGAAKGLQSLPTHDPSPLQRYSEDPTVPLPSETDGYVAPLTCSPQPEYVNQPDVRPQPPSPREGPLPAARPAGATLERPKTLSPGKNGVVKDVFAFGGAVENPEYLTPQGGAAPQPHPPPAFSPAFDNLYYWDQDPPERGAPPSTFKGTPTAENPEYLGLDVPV
Procedure: Test 21: HER2 Exon 20 Inserted A775insYVMA Cell Proliferation Test
as §1

BaF3 (EGFR/N771insH) [3] = target: T4, BaF3 (EGFR/N771insH) (Homo sapiens, UniProt P00533, cells depend on it, form not given); test: Test 16: EGFR exon 20 inserted N771insH cell proliferation test; assay type: cell-based; conditions: BaF3 (EGFR/N771insH), 72 hours, Cell Titer-Glo; read-out: Test 16 IC50
T4 construct: Test 16 IC50 (nM); other: BaF3 (EGFR/N771insH), 72 hours, Cell Titer-Glo

BaF3 (EGFR/N771insH) [4] = target: T5, BaF3 (EGFR/N771insH) (Homo sapiens, UniProt P00533, cells depend on it, form not given); test: as above; assay type: cell-based; conditions: N771insH, D770insNPG, V774insHV (tests 16-18), in words
T5 construct: other: N771insH, D770insNPG

HER4 kinase = target: T6, HER4 kinase (Homo sapiens, UniProt Q15303); test: Test 24: HER4 kinase inhibition test; assay type: biochemical
T6 construct: made in house
T6 sequence (Q15303 26-1308): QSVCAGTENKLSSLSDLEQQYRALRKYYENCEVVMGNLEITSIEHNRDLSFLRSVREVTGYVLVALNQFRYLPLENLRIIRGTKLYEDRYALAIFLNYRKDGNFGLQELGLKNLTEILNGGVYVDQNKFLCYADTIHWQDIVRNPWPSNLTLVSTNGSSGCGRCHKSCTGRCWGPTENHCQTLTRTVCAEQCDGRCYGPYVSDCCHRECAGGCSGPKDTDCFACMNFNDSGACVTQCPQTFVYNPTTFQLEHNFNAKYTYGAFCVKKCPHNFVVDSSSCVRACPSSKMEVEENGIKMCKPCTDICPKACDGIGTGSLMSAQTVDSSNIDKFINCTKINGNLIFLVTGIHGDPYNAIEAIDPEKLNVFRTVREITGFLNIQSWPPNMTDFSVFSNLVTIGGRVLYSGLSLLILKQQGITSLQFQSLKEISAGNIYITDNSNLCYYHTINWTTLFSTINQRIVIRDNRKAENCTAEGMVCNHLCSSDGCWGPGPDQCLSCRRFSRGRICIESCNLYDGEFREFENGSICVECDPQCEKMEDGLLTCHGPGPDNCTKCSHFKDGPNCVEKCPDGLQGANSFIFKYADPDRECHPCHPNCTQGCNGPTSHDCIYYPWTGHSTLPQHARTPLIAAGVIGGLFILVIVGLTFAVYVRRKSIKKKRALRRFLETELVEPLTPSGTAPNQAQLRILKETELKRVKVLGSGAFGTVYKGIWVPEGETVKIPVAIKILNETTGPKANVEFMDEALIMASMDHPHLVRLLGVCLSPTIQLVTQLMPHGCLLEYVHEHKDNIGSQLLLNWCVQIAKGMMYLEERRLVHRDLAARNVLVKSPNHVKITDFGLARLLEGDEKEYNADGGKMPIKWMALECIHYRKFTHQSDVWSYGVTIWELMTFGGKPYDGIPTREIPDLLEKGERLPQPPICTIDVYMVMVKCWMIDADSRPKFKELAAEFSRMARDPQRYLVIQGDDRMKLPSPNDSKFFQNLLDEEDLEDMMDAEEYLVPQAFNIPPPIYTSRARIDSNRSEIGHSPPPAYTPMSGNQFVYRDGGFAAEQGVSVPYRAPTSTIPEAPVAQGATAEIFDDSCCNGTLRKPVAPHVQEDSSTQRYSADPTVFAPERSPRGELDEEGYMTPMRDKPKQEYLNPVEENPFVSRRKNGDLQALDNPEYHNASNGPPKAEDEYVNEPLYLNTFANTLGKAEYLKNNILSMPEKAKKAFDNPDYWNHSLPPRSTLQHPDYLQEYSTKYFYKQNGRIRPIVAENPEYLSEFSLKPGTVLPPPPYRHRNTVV
Procedure: Test 24: HER4 Kinase Inhibition Test
Next, 100% DMSO was used to formulate the test compound into a solution of 50× at the final test concentration, and then sequentially diluted to 10 test concentrations; 100 μL of 100% DMSO was added to the blank control well as a negative control group without the compound and kinase. […] Finally, 10 μL of 2.5× peptide solution was added to the 384-well plate. After incubating at 25° C. for 10 minutes, 25 μL of reaction stop solution was added. Finally, the absorbance was detected on the Envision microplate detector to obtain the data of each compound. Finally, the data was input into a suitable software package (such as Prism) for curve fitting analysis.

BaF3 (EGFR/S768I) [5] = target: T7, BaF3 (EGFR/S768I) (Homo sapiens, UniProt P00533, cells depend on it, form not given); test: Test 19: EGFR/S768I mutant cell line proliferation test; assay type: cell-based; conditions: EGFR S768I and EGFR L861Q (tests 19-20), in words
T7 construct: other: EGFR S768I and EGFR L8
Procedure: (§3) Test 19: EGFR/S768I Mutant Cell Line Proliferation Test
as §1

BaF3 (EGFR/S768I) [6] = target: T8, BaF3 (EGFR/S768I) (Homo sapiens, UniProt P00533, cells depend on it, form not given); test: as above; assay type: cell-based; conditions: BaF3 (EGFR/S768I), 72 hours, Cell Titer-Glo; read-out: Test 19 IC50
T8 construct: other: BaF3 (EGFR/S768I), 72 hours, Cell Titer-Glo
Procedure: as §3, §1

BaF3 (EGFR/V774insHV) = BaF3 (EGFR/V774insHV) (Homo sapiens, UniProt P00533, cells depend on it, form not given); test: Test 18: EGFR exon 20 inserted V774insHV cell proliferation test; assay type: cell-based; conditions: 72 hours, Cell Titer-Glo, read-out: Test 18 IC50
Procedure: as §1

BaF3 (EGFR/A763insFQEA) = BaF3 (EGFR/A763insFQEA) (Homo sapiens, UniProt P00533, INS763FQEA, cells depend on it); test: Test 14: EGFR exon 20 inserted A763insFQEA cell proliferation test; assay type: cell-based; conditions: 72 hours, Cell Titer-Glo, read-out: Test 14 IC50
In short: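 BaF3 cells dependent on EGFR A763insFQEA, plated at 3,000 cells/well and cultured overnight at 37 °C, 5% CO2, then exposed to compound serial dilutions in DMSO for 72 h. Viable cells quantified by CellTiter-Glo luminescence; values from curve fitting.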

BaF3 (HER2/G776insVC) = BaF3 (HER2/G776insVC) (Homo sapiens, UniProt P04626, cells depend on it, form not given); test: Test 23: HER2 exon 20 inserted G776insVC cell proliferation test; assay type: cell-based; conditions: 72 hours, Cell Titer-Glo, read-out: test 23 IC50
BaF3 (HER2/G776insVC), sequence (P04626 with tags, fused parts or gaps DUP772-775): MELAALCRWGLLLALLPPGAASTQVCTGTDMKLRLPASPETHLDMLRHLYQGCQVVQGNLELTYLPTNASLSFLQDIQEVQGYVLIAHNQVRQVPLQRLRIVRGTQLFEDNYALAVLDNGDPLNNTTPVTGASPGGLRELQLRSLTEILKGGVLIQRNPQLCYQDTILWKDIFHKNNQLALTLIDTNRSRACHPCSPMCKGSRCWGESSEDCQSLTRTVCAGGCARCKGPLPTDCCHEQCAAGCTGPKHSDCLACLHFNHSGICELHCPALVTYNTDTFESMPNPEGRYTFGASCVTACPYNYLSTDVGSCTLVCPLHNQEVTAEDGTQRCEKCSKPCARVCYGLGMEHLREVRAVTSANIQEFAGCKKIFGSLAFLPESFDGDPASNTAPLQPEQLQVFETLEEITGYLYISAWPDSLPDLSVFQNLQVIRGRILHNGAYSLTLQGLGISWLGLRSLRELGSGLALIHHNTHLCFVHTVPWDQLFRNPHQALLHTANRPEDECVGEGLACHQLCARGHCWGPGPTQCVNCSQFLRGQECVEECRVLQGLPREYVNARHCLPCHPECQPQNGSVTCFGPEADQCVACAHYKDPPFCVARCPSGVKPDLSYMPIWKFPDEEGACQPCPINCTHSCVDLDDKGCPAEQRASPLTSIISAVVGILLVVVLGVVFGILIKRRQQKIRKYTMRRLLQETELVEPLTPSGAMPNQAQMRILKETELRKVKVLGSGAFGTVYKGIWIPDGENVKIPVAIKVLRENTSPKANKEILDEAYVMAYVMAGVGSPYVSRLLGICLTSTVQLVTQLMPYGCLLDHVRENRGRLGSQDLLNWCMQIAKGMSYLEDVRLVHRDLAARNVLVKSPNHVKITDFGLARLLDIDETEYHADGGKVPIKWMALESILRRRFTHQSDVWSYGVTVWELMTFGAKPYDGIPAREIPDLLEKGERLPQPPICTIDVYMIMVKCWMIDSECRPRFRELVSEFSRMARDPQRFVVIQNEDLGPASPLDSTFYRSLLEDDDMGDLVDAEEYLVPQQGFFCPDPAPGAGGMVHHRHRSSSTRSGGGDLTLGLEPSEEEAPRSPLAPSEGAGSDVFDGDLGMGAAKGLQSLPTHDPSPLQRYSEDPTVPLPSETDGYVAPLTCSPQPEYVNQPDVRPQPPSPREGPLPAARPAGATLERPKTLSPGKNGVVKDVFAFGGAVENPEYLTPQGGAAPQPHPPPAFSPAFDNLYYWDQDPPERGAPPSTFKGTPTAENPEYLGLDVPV
Procedure: Test 23: HER2 Exon 20 Inserted G776insVC Cell Proliferation Test
as §1

BaF3 (EGFR/V769insASV) = BaF3 (EGFR/V769insASV) (Homo sapiens, UniProt P00533, DUP767-769, cells depend on it); test: Test 15: EGFR exon 20 inserted V769insASV cell proliferation test; assay type: cell-based; conditions: 72 hours, Cell Titer-Glo, read-out: Test 15 IC50
In short: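 BaF3 cells expressing EGFR V769insASV (3000 cells/well) plated overnight, then exposed to DMSO-diluted compound series for 72 h at 37 °C, 5% CO2. Viability by CellTiter-Glo luminescence; values from curve fitting.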

BaF3 (EGFR/L861Q) = BaF3 (EGFR/L861Q) (Homo sapiens, UniProt P00533, cells depend on it, form not given); test: Test 20: EGFR/L861Q mutant cell line proliferation test; assay type: cell-based; conditions: 72 hours, Cell Titer-Glo, read-out: Test 20 IC50
Procedure: as §1, with “The compound serially diluted in 100% DMSO was added to the cells using a pipette, and the cells were incubated for another 72 hours.” left out

## C=CC(=O)Nc1cc(Nc2ncnc(-c3cn(C)c4ccccc34)n2)c(OC)cc1N(C)CCN(C)C [Compound 16]
BaF3 (EGFR/D770insNPG)
  GI50: 0.00469 µM
BaF3 (EGFR/D770insSVD) [1]
  cell activity compared with Osimertinib (AZD9291) against EGFR exon 20 insertion mutations: significant superior cell activity over Osimertinib (AZD9291)
BaF3 (EGFR/D770insSVD) [2]
  GI50: 0.0358 µM
BaF3 (HER2/P780insGSP)
  GI50: 0.00164 µM
BaF3 (HER2/A775insYVMA)
  GI50: 0.00767 µM
BaF3 (EGFR/N771insH) [3]
  GI50: 0.00867 µM
BaF3 (EGFR/N771insH) [4]
  cell activity compared with Osimertinib (AZD9291) against EGFR exon 20 insertion mutations: significantly superior cell activity over Osimertinib (AZD9291)
HER4 kinase; HER4 kinase
  IC50 value lower than that of Osimertinib (AZD9291): about 1 fold
HER4 kinase; HER4 kinase inhibition test, read-out: Test 12 HER4 IC50
  IC50: 0.029 µM
BaF3 (EGFR/S768I) [5]
  activity compared with Osimertinib (AZD9291) against EGFR S768I and EGFR L861Q mutations: superior activity over Osimertinib (AZD9291)
BaF3 (EGFR/S768I) [6]
  GI50: 0.00863 µM
BaF3 (EGFR/V774insHV)
  GI50: 0.00759 µM
BaF3 (EGFR/A763insFQEA)
  GI50: 0.0128 µM
BaF3 (HER2/G776insVC)
  GI50: 0.012 µM
BaF3 (EGFR/V769insASV)
  GI50: 0.0248 µM
BaF3 (EGFR/L861Q)
  GI50: 0.0216 µM

Source: patent US12258344B2, “Azaaromatic amide derivatives for the treatment of cancer” (SHENZHEN FORWARD PHARMACEUTICALS CO., LTD., priority 2019, dated 2025)
